Data reported in PubChem BioAssay (NCI).
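How tested: cells in 96-well plates exposed to compound for 48 hours at five concentrations. TGI: concentration producing complete growth inhibition.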

Key:
Test in all cases: NCI anticancer screen, dose series, 48 h
[1] = system: U251 CNS
[2] = system: CAKI-1 renal
[3] = system: IGROV1 ovarian
[4] = system: SNB-19 CNS
[5] = system: OVCAR-8 ovarian
[6] = system: SF-295 CNS

Structure (SMILES) | TGI [1] | TGI [2] | TGI [3] | TGI [4] | TGI [5] | TGI [6]
CCC(=O)COc1ccc(NC(NC(=O)C(C(F)(F)F)C(F)(F)F)(C(F)(F)F)C(F)(F)F)cc1 | > 100 µM | 94.1 µM | 44.9 µM | > 100 µM | 62.8 µM | > 100 µM
S=C(Nc1cccc(Cl)c1)Nc1ccccn1 | > 100 µM | > 100 µM | > 100 µM | > 100 µM | > 100 µM | > 100 µM
CC(C)(C)N1NC1C1NN1C(C)(C)C (configuration not stated) | > 100 µM | > 100 µM | > 100 µM | > 100 µM | > 100 µM | > 100 µM
O=C1CCCC2=C1CC1=C(CCCC1=O)N2c1cccc2ccccc12 | > 100 µM | > 100 µM | > 100 µM | > 100 µM | > 100 µM | –
C=CCOCn1ccc(=O)[nH]c1=O | – | > 100 µM | > 100 µM | > 100 µM | > 100 µM | > 100 µM
CC(C)CC1c2[nH]c3ccccc3c2C[C@H]2C(=O)NC(CCC(=O)OC(C)(C)C)C(=O)N12 (some centres not stated) | > 100 µM | > 100 µM | > 100 µM | > 100 µM | > 100 µM | 41.1 µM
CC1NC(/C(=C/c2ccccc2O)NC(=O)c2ccccc2)OC1=O (configuration not stated) | > 50 µM | > 50 µM | > 50 µM | > 50 µM | > 50 µM | > 50 µM
COc1ccc(OC)c2nc3c(C(=O)NCCN(C)C)cccc3nc12 | 28.6 µM | > 74 µM | > 69.5 µM | > 100 µM | 17.7 µM | 25.6 µM
CC(C)/C=N\n1c(N)c(C#N)c(C#N)c1C(C)C | > 100 µM | > 100 µM | 77.8 µM | > 100 µM | 63.7 µM | 73.7 µM
COc1ccc(CN(CCc2c[nH]c3ccccc23)Cc2ccc(OC)cc2)cc1 | – | > 30.2 µM | 9.49 µM | > 44.4 µM | – | 5.78 µM
COC(=N)C12C(N)=NC(OC)(OC)C1(C#N)C21C(=O)N(c2ccccc2)N=C1C (configuration not stated) | > 100 µM | > 100 µM | > 100 µM | > 100 µM | > 100 µM | > 100 µM
C=C1C(=O)C23CC1C[C@H](OC(C)=O)C2C1(C)C(OC(C)=O)C[C@H](O)C(C)(C)[C@H]1C(O)[C@@H]3OC(C)=O (some centres not stated) | 28.9 µM | 30.7 µM | 30.6 µM | 44.3 µM | 22 µM | > 57.6 µM
CCOC(=O)c1nc2ccc(C(F)(F)F)cc2nc1Oc1ccc(F)cc1 | > 100 µM | > 100 µM | > 100 µM | > 100 µM | > 100 µM | > 100 µM
N#CS/C(Cl)=C(/C(Cl)=C(Cl)Cl)[N+](=O)[O-] | > 100 µM | > 100 µM | > 100 µM | 29.3 µM | > 100 µM | > 100 µM
O=c1cc(-c2cccc(OC(F)(F)F)c2)[nH]c2cc3c(cc12)OCO3 | 0.188 µM | > 100 µM | 16.3 µM | > 100 µM | > 52.2 µM | –
O=C1CC2(CCC(O)(c3ccc(Cl)cc3)C(C(=O)c3ccc(Cl)cc3)C2)C(=O)c2ccccc2N1 (configuration not stated) | > 31.9 µM | > 40.9 µM | > 52.1 µM | 6.71 µM | > 62.4 µM | 39.5 µM
CC1(C)OCC(C2OC(N3O[C@H](CI)C[C@@H]3c3ccccc3)C3OC(C)(C)OC23)O1 (some centres not stated) | > 100 µM | > 100 µM | > 100 µM | > 100 µM | – | > 100 µM
CNC(=O)c1n[nH][nH]c1=O | > 100 µM | > 100 µM | > 100 µM | > 100 µM | > 100 µM | > 100 µM
COC1OC(CO)C(O)C(OC(=O)c2cc(O)c(O)c(O)c2)C1OC(=O)c1cc(O)c(O)c(O)c1 (configuration not stated) | > 100 µM | > 100 µM | > 100 µM | > 100 µM | > 100 µM | 42.1 µM
O=C1N=C(c2ccccc2)O/C1=C\c1ccccc1 | > 100 µM | > 100 µM | > 100 µM | > 100 µM | > 100 µM | > 100 µM
CC1(O)/C(=N/O)CC2CC1C2(C)C (configuration not stated) | > 100 µM | – | > 100 µM | > 100 µM | > 100 µM | > 100 µM
CC1N(C)C(=O)OC12CCN(CCCC(=O)c1ccc(F)cc1)CC2 (configuration not stated) | > 100 µM | > 100 µM | > 100 µM | > 100 µM | > 100 µM | > 100 µM
OC1CC(O)c2c(Cl)sc(Cl)c21 (configuration not stated) | > 100 µM | > 100 µM | > 100 µM | – | > 100 µM | 87.3 µM

Structure (SMILES) | TGI [1] | TGI [2] | TGI [3] | TGI [4] | TGI [5] | TGI [6]
CC(=O)CCC[C@@H](C)[C@@H]1O[C@H]([C@@]2(C)CCC(=O)O2)C[C@H]2C(CSc3ccccc3)C(=O)O[C@@H]12 (some centres not stated) | 36.3 µM | 27.2 µM | > 38 µM | > 100 µM | > 50.8 µM | > 66 µM
c1ccc(CCN(Cc2nc3ccccc3[nH]2)Cc2nc3ccccc3[nH]2)cc1 | 19.8 µM | 12.5 µM | 17.8 µM | > 31.6 µM | 18.6 µM | 35.4 µM
COc1cc2cc(C(=O)N3CC(CCl)c4ccc(NCCN)cc43)[nH]c2c(OC)c1OC (configuration not stated) | – | 1 µM | 0.375 µM | 3.13 µM | 2.77 µM | 1.44 µM
N=C1C(=N)c2ccccc2-c2ccccc21 | 2.63 µM | 3.08 µM | 3.93 µM | 3.01 µM | – | 2.98 µM
O=[N+]([O-])c1cccc2nccc(NCC(O)CO)c12 (configuration not stated) | 32.6 µM | 35.8 µM | 38.9 µM | – | 33.2 µM | 53.7 µM
O=C(Nc1nc(C23CC4CC(CC(C4)C2)C3)cs1)c1cc2cc(Br)cc(Br)c2oc1=O | 41.5 µM | > 100 µM | > 100 µM | > 100 µM | > 100 µM | > 100 µM
NC1=NC(OCC2(CO)CCC2)C=C(NCC2(CO)CCC2)N1 (configuration not stated) | > 100 µM | > 100 µM | > 100 µM | > 100 µM | > 100 µM | > 100 µM
O=C(O)CN1CCN(CC(=O)O)CCN(CC(=O)O)CCN(CC(=O)O)CC1 | > 100 µM | > 100 µM | > 100 µM | > 100 µM | > 100 µM | > 100 µM
Cc1c2c(n(CCc3ccccc3)c1C)NN=C(C#N)S2(=O)=O | > 100 µM | – | > 100 µM | > 100 µM | > 100 µM | –
CC1OC(O[C@H]2CC[C@]3(C)[C@H]4CC=C5[C@@H]6[C@@H](C)[C@H](C)CC[C@]6(C(=O)O)CC[C@@]5(C(=O)O)[C@]4(C)CC[C@H]3C2(C)C)C(O)C(O)C1O (some centres not stated) | > 75 µM | > 75 µM | – | > 75 µM | > 75 µM | > 75 µM
C[Si](C)(C)OC1c2[nH]c3ccccc3c2CN2C(=O)CCC12 (configuration not stated) | > 100 µM | > 100 µM | > 100 µM | > 100 µM | > 100 µM | –
O=[N+]([O-])C(=C(N1CCOCC1)N1CCOCC1)/C(Cl)=C(\Cl)[N+](=O)[O-] | 37.8 µM | 3.04 µM | 2.78 µM | > 65.6 µM | – | 36.4 µM
CC(C)CCC[C@@H](C)C1CCC2[C@@H]3CCC4CC(CCC=C(c5cc(Cl)c(OC(=O)c6ccccc6)c(C(=O)O)c5)c5cc(Cl)c(OC(=O)c6ccccc6)c(C(=O)O)c5)CC[C@]4(C)C3CC[C@@]21C (some centres not stated) | > 100 µM | > 100 µM | 94.3 µM | > 100 µM | > 100 µM | –
CCCCCCCCCCCCCCCCP(=O)(O)OP(=O)(O)OCC1OC(n2cnc3c(N)ncnc32)C(O)C1O (configuration not stated) | 41.1 µM | 64.4 µM | 35.9 µM | 42 µM | 43.9 µM | –
Cc1cc(Cl)ccc1N=NC(=O)NNc1ccc(Cl)cc1C | 31.4 µM | – | 20.7 µM | 48.9 µM | 27.2 µM | –
O=C1/C(=C\c2cccc(Oc3ccccc3)c2)SC(c2ccccc2)N1c1ccc(Cl)cc1 (configuration not stated) | > 100 µM | > 100 µM | – | > 100 µM | > 100 µM | > 100 µM
Cc1sc2nc3n(c(=O)c2c1C)N=C(c1ccc(Cl)cc1)CS3 | > 100 µM | > 100 µM | – | – | > 100 µM | > 100 µM
CC(=O)Nc1ccc2c(C)c3c4ccccc4n(C)c3nc2n1 | – | > 100 µM | > 100 µM | > 100 µM | > 100 µM | 53.4 µM
O=C(Cc1ccccc1)c1ccc2[nH]c(=O)oc2c1 | 62.3 µM | > 100 µM | > 100 µM | – | > 100 µM | > 100 µM
CC1C[C@]2(C)C(=S)Nc3ccccc3[C@@H]2Nc2ccccc21 (some centres not stated) | – | 79 µM | 40.3 µM | 57.4 µM | 29.5 µM | 37.9 µM
CC1[C@@H](OCc2ccccc2)COC(=O)N1Cc1ccccc1 (some centres not stated) | > 100 µM | – | > 100 µM | > 100 µM | > 100 µM | > 100 µM
COC(=O)C1(O)c2ccccc2N=C2C(=O)c3ccccc3N21 (configuration not stated) | > 100 µM | > 100 µM | > 100 µM | – | > 100 µM | > 100 µM
